Measured values as given in ChEMBL document CHEMBL1201862, “PubChem BioAssay data set” (2004).
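Tested at 5 concentrations; 48 h exposure; 96-well plates; endpoints linearly interpolated, else capped at highest concentration. Abbreviation: GI50, concentration required for 50% inhibition of growth.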 Active and inactive are the calls of the source. Rule as the data show it: active = GI50 up to about 1.1 µM and inactive = higher.

Columns and labels:
Test in all cases: growth of human tumour cells (NCI), 48 h
786-0 = test system: 786-0
A498 = test system: A498
A549 = test system: A549
ACHN = test system: ACHN
BT-549 = test system: BT-549
CAKI-1 = test system: CAKI-1
CCRF-CEM = test system: CCRF-CEM
COLO 205 = test system: COLO 205
DU-145 = test system: DU-145
EKVX = test system: EKVX
HCC 2998 = test system: HCC 2998
HCT-116 = test system: HCT-116
HCT-15 = test system: HCT-15
HL-60 = test system: HL-60
HOP-62 = test system: HOP-62
HOP-92 = test system: HOP-92
HT-29 = test system: HT-29
Hs-578T = test system: Hs-578T
IGROV-1 = test system: IGROV-1
K562 = test system: K562
KM12 = test system: KM12
LOX IMVI = test system: LOX IMVI
M14 = test system: M14
MCF7 = test system: MCF7
MDA-MB-231 = test system: MDA-MB-231
MDA-MB-435 = test system: MDA-MB-435
MDA-N = test system: MDA-N
MOLT-4 = test system: MOLT-4
Malme-3M = test system: Malme-3M
NCI-H226 = test system: NCI-H226
NCI-H23 = test system: NCI-H23
NCI-H460 = test system: NCI-H460
NCI-H522 = test system: NCI-H522
OVCAR-3 = test system: OVCAR-3
OVCAR-4 = test system: OVCAR-4
OVCAR-5 = test system: OVCAR-5
OVCAR-8 = test system: OVCAR-8
PC-3 = test system: PC-3
RPMI-8226 = test system: RPMI-8226
RXF 393 = test system: RXF 393
SF-268 = test system: SF-268
SF-295 = test system: SF-295
SF-539 = test system: SF-539
SK-MEL-28 = test system: SK-MEL-28
SK-MEL-5 = test system: SK-MEL-5
SK-OV-3 = test system: SK-OV-3
SN12C = test system: SN12C
SNB-75 = test system: SNB-75
SR = test system: SR
SW-620 = test system: SW-620
T47D = test system: T47D
TK-10 = test system: TK-10
U-251 = test system: U-251
UACC-257 = test system: UACC-257
UACC-62 = test system: UACC-62
UO-31 = test system: UO-31
SK-MEL-2 = test system: SK-MEL-2
SNB-19 = test system: SNB-19
NCI/ADR-RES = test system: NCI/ADR-RES

SMILES: Cc1ccc(S(=O)(=O)N/N=C2\CC3CC4CCC2C4C3)cc1 (stereo unspecified)
- GI50 (786-0): > 100 µM (inactive)
- GI50 (A498): > 100 µM (inactive)
- GI50 (A549): > 100 µM (inactive)
- GI50 (ACHN): > 100 µM (inactive)
- GI50 (BT-549): > 100 µM (inactive)
- GI50 (CAKI-1): > 100 µM (inactive)
- GI50 (CCRF-CEM): > 100 µM (inactive)
- GI50 (COLO 205): > 100 µM (inactive)
- GI50 (DU-145): > 100 µM (inactive)
- GI50 (EKVX): > 100 µM (inactive)
- GI50 (HCC 2998): > 100 µM (inactive)
- GI50 (HCT-116): > 100 µM (inactive)
- GI50 (HCT-15): > 100 µM
- GI50 (HL-60): > 100 µM (inactive)
- GI50 (HOP-62): > 100 µM (inactive)
- GI50 (HOP-92): > 100 µM (inactive)
- GI50 (HT-29): > 100 µM (inactive)
- GI50 (Hs-578T): > 100 µM (inactive)
- GI50 (IGROV-1): > 100 µM (inactive)
- GI50 (K562): > 100 µM (inactive)
- GI50 (KM12): > 100 µM (inactive)
- GI50 (LOX IMVI): > 100 µM (inactive)
- GI50 (M14): > 100 µM (inactive)
- GI50 (MCF7): > 100 µM (inactive)
- GI50 (MDA-MB-231): > 100 µM (inactive)
- GI50 (MDA-MB-435): > 100 µM (inactive)
- GI50 (MDA-N): > 100 µM (inactive)
- GI50 (MOLT-4): > 100 µM (inactive)
- GI50 (Malme-3M): > 100 µM (inactive)
- GI50 (NCI-H226): > 100 µM (inactive)
- GI50 (NCI-H23): > 100 µM (inactive)
- GI50 (NCI-H460): > 100 µM (inactive)
- GI50 (NCI-H522): > 100 µM (inactive)
- GI50 (OVCAR-3): > 100 µM (inactive)
- GI50 (OVCAR-4): > 100 µM (inactive)
- GI50 (OVCAR-5): > 100 µM (inactive)
- GI50 (OVCAR-8): > 100 µM (inactive)
- GI50 (PC-3): > 100 µM (inactive)
- GI50 (RPMI-8226): > 100 µM (inactive)
- GI50 (RXF 393): > 100 µM (inactive)
- GI50 (SF-268): > 100 µM (inactive)
- GI50 (SF-295): > 100 µM (inactive)
- GI50 (SF-539): > 100 µM (inactive)
- GI50 (SK-MEL-28): > 100 µM (inactive)
- GI50 (SK-MEL-5): > 100 µM (inactive)
- GI50 (SK-OV-3): > 100 µM (inactive)
- GI50 (SN12C): > 100 µM (inactive)
- GI50 (SNB-75): > 100 µM (inactive)
- GI50 (SR): > 100 µM (inactive)
- GI50 (SW-620): > 100 µM (inactive)
- GI50 (T47D): > 100 µM (inactive)
- GI50 (TK-10): > 100 µM (inactive)
- GI50 (U-251): > 100 µM (inactive)
- GI50 (UACC-257): > 100 µM (inactive)
- GI50 (UACC-62): > 100 µM (inactive)
- GI50 (UO-31): > 100 µM (inactive)

SMILES: CC1(C)C/N=C/C(C)(OCc2ccccc2)C(=O)NC(C)(C)C/N=C/C(C)(OCc2ccccc2)C(=O)N1 (stereo unspecified)
- GI50 (786-0): > 10 µM (inactive)
- GI50 (A498): > 10 µM (inactive)
- GI50 (A549): > 10 µM (inactive)
- GI50 (ACHN): > 10 µM (inactive)
- GI50 (BT-549): > 10 µM (inactive)
- GI50 (CCRF-CEM): > 10 µM (inactive)
- GI50 (DU-145): > 10 µM (inactive)
- GI50 (EKVX): > 10 µM (inactive)
- GI50 (HCC 2998): > 10 µM (inactive)
- GI50 (HCT-116): > 10 µM (inactive)
- GI50 (HCT-15): > 10 µM
- GI50 (HL-60): > 10 µM (inactive)
- GI50 (HOP-62): > 10 µM (inactive)
- GI50 (HOP-92): 0.0569 µM (active)
- GI50 (HT-29): > 10 µM (inactive)
- GI50 (Hs-578T): > 10 µM (inactive)
- GI50 (IGROV-1): > 10 µM (inactive)
- GI50 (K562): > 10 µM (inactive)
- GI50 (KM12): > 10 µM (inactive)
- GI50 (LOX IMVI): > 10 µM (inactive)
- GI50 (M14): > 10 µM (inactive)
- GI50 (MCF7): > 10 µM (inactive)
- GI50 (MDA-MB-231): > 10 µM (inactive)
- GI50 (MDA-MB-435): > 10 µM (inactive)
- GI50 (MDA-N): > 10 µM (inactive)
- GI50 (MOLT-4): > 10 µM (inactive)
- GI50 (NCI-H226): > 10 µM (inactive)
- GI50 (NCI-H23): > 10 µM (inactive)
- GI50 (NCI-H460): > 10 µM (inactive)
- GI50 (OVCAR-3): > 10 µM (inactive)
- GI50 (OVCAR-5): > 10 µM (inactive)
- GI50 (OVCAR-8): > 10 µM (inactive)
- GI50 (PC-3): > 10 µM (inactive)
- GI50 (RPMI-8226): > 10 µM (inactive)
- GI50 (RXF 393): > 10 µM (inactive)
- GI50 (SF-268): > 10 µM (inactive)
- GI50 (SF-295): > 10 µM (inactive)
- GI50 (SF-539): > 10 µM (inactive)
- GI50 (SK-MEL-28): > 10 µM (inactive)
- GI50 (SK-MEL-2): > 10 µM (inactive)
- GI50 (SK-MEL-5): > 10 µM (inactive)
- GI50 (SK-OV-3): > 10 µM (inactive)
- GI50 (SN12C): > 10 µM (inactive)
- GI50 (SNB-19): > 10 µM (inactive)
- GI50 (SNB-75): 3.82 µM (inactive)
- GI50 (SR): > 10 µM (inactive)
- GI50 (SW-620): > 10 µM (inactive)
- GI50 (T47D): > 10 µM (inactive)
- GI50 (TK-10): > 10 µM (inactive)
- GI50 (U-251): > 10 µM (inactive)
- GI50 (UACC-257): > 10 µM (inactive)
- GI50 (UACC-62): > 10 µM (inactive)
- GI50 (UO-31): > 10 µM (inactive)

SMILES: C#CCNCC(=O)O
- GI50 (786-0): > 100 µM (inactive)
- GI50 (A498): > 100 µM (inactive)
- GI50 (A549): > 100 µM (inactive)
- GI50 (ACHN): > 100 µM (inactive)
- GI50 (BT-549): > 100 µM (inactive)
- GI50 (CAKI-1): > 100 µM (inactive)
- GI50 (CCRF-CEM): > 100 µM (inactive)
- GI50 (COLO 205): > 100 µM (inactive)
- GI50 (DU-145): > 100 µM (inactive)
- GI50 (EKVX): > 100 µM (inactive)
- GI50 (HCC 2998): > 100 µM (inactive)
- GI50 (HCT-116): > 100 µM (inactive)
- GI50 (HCT-15): > 100 µM
- GI50 (HOP-62): > 100 µM (inactive)
- GI50 (HOP-92): > 100 µM (inactive)
- GI50 (HT-29): > 100 µM (inactive)
- GI50 (Hs-578T): > 100 µM (inactive)
- GI50 (IGROV-1): > 100 µM (inactive)
- GI50 (KM12): > 100 µM (inactive)
- GI50 (M14): > 100 µM (inactive)
- GI50 (MCF7): > 100 µM (inactive)
- GI50 (MDA-MB-231): > 100 µM (inactive)
- GI50 (MDA-MB-435): > 100 µM (inactive)
- GI50 (MDA-N): > 100 µM (inactive)
- GI50 (MOLT-4): > 100 µM (inactive)
- GI50 (Malme-3M): > 100 µM (inactive)
- GI50 (NCI-H226): > 100 µM (inactive)
- GI50 (NCI-H23): > 100 µM (inactive)
- GI50 (NCI-H522): > 100 µM (inactive)
- GI50 (NCI/ADR-RES): > 100 µM (inactive)
- GI50 (OVCAR-3): > 100 µM (inactive)
- GI50 (OVCAR-4): > 100 µM (inactive)
- GI50 (OVCAR-5): > 100 µM (inactive)
- GI50 (OVCAR-8): > 100 µM (inactive)
- GI50 (PC-3): > 100 µM (inactive)
- GI50 (RPMI-8226): > 100 µM (inactive)
- GI50 (RXF 393): > 100 µM (inactive)
- GI50 (SF-268): > 100 µM (inactive)
- GI50 (SF-295): > 100 µM (inactive)
- GI50 (SF-539): > 100 µM (inactive)
- GI50 (SK-MEL-28): > 100 µM (inactive)
- GI50 (SK-MEL-2): > 100 µM (inactive)
- GI50 (SK-MEL-5): > 100 µM (inactive)
- GI50 (SK-OV-3): > 100 µM (inactive)
- GI50 (SNB-19): > 100 µM (inactive)
- GI50 (SW-620): > 100 µM (inactive)
- GI50 (T47D): > 100 µM (inactive)
- GI50 (TK-10): > 100 µM (inactive)
- GI50 (U-251): > 100 µM (inactive)
- GI50 (UACC-257): > 100 µM (inactive)
- GI50 (UACC-62): > 100 µM (inactive)
- GI50 (UO-31): > 100 µM (inactive)
